Measured values taken from paper PMC8483358 (2021).

Assays:
[1] = tested on: ALK wild-type (WT) hairpin oligonucleotide (DNA, hairpin) AAATTCAACCACCAGAACATTTTTATGTTCTGGTGGTTGAATTT; test: SPR (Biacore X100), kinetic fit with mass transfer; conditions: 150 mM NaCl; HBS-EP: 10 mM HEPES, 3 mM EDTA, 0.005% P20, 0.1% DMSO, 25 °C
[2] = tested on: F1174L-mutated ALK hairpin oligonucleotide (DNA, hairpin) AAATTAAACCACCAGAACATTTTTATGTTCTGGTGGTTTAATTT; test: SPR (Biacore X100), kinetic fit with mass transfer; conditions: 150 mM NaCl; HBS-EP: 10 mM HEPES, 3 mM EDTA, 0.005% P20, 0.1% DMSO, 25 °C

With CC(=O)Nc1cc(C(=O)Nc2cc(C(=O)Nc3cc(C(=O)Nc4cc(C(=O)NCCC(=O)Nc5cc(C(=O)Nc6cc(C(=O)Nc7cc(C(=O)NCCCC(=O)Nc8cn(C)c(C(=O)Nc9cn(C)c(C(=O)NCCC(=O)Nc%10cn(C)c(C(=O)Nc%11cn(C)c(C(=O)Nc%12cc(C(=O)Nc%13ccc%14cc(C(=O)NCCCN(C)C)[nH]c%14c%13)n(C)c%12)n%11)n%10)n9)n8)n(C)c7)n(C)c6)n(C)c5)n(C)c4)n(C)c3)n(C)c2)n(C)c1 the KD [1] was 58.20 ± 1.62 × 10^-8 M and the KD [2] was 6.37 ± 0.41 × 10^-8 M.
